From patent US12082918B2, “Preparation for magnetic resonance diagnostics for oncological diseases, comprising deuterated 2-amino-2-methylpropionic acid and/or 2-(N-methylamino)-2-methylpropionic acid, and diagnostic method using said preparation” (SOLVEX LIMITED LIABILITY COMPANY, priority 2017, dated 2024)

Assays:
[1] = tested on: carcinoma of the breast 4T1; assay: 2H MRI visualisation of 4T1 breast carcinoma in mice in vivo; design: species or system mice Balb/c
Method: (§1) In the examples below, the MRI scanner Bruker BioSpec BC70/30 USR with the constant field of 7.05 T, equipped with a surface transmitting-and-receiving coil with a diameter of 3 cm and a scan depth of ca. 1 cm was used.
(§2) To register deuterium image the FLASH (Fast low angle shot) pulse sequence was used.
(§3) For experiments with the broadband excitation the following settings were used: the excitation frequency was determined by ^2H NMR spectrum and was sfo1≈46.1745 MHz, a rectangular excitation pulse with a width of 1300 Hz and a power of 36 dB, the flip angle FA=30°, the time TR=11.8 MS, echo time TE=4.4 msec, a scan area of 10 cm×10 cm, scan matrix, 50×50, slice thickness 3 cm, bandwidth of 12500 Hz, total scan time 10 minutes (1030 averages).
For experiments with selective excitation the following settings were used: excitation frequency sfo1=46.1745 MHz, a rectangular excitation pulse with a width of 130 Hz and a power of 48 dB, the flip angle FA=30°, the repetition time TR=25 MS, echo time TE=10 MS, a scanning area of 10 cm×10 cm, scan matrix 50×50, slice thickness 3 cm, bandwidth of 25,000 Hz, total scan time 10 minutes.
In this example, experiments were conducted on mice Balb/c inoculated with carcinoma of the breast 4T1 (injection of 5×10^5 cells/60 μl under the left front paw for 10 days before experiment) and in healthy Balb/c mice.
An animal no. 1-5 weighing 20 g was injected intraperitoneally with a solution of 20 mg of 2-amino-2-(CD3)-3,3,3-D3-propionic acid in 0.5 ml of a saline solution. An animal no. […] weighing 20 g was injected intraperitoneally with a solution of 10 mg (mouse no. 4) or 5 mg (mouse no. 5) 2-amino-2-(CD3)-3,3,3-D3-propionic acid in 0.25 ml of a saline solution. After injection, the animal was kept in a separate cage for a specified time (no. 1 with the tumor and no. 2 without the tumor: 40 min; no. 3 with the tumor: 115 min; no. 4 with the tumor: 20 and 360 min; no. 5 and no. 6 with the tumor: 30 min). To register the MR images and spectra an animal was immobilized with isoflurane. The surface transmitting-and-receiving coil was fixed on the body of the mouse on the dorsal side sequentially in two positions (thoracic, kidneys). The FIGS. 3-7 show ^2H MR images obtained with the use of the broadband excitation of the deuterium nuclei.

[2] = tested on: C6 glioma; assay: 2H MRI visualisation of glioma C6 in rats in vivo; design: species or system Wistar rats; conditions: 4 hours after 150 mg i.p.
Method: as §1, §2, §3
In this example, experiments were conducted on Wistar rats inoculated with C6 glioma and in healthy Wistar rats.
An animal with the weight of 210 g was injected intraperitoneally a solution of 150 mg of 2-amino-2-(CD3)-3,3,3-D3-propionic acid in 1.5 ml of a saline solution. After injection, the animal was kept in a separate cage with free access to food and water. To register the MR images and spectra an animal was immobilized with isoflurane. The surface transmitting-and-receiving coil was fixed over the head of the rat.

[3] = tested on: carcinoma of the breast 4T1; assay: 2H MRI visualisation of 4T1 breast carcinoma in mice in vivo; design: species or system mice Balb/c; remark: listed apart in the source

[2H]C([2H])([2H])C(N)(C(=O)O)C([2H])([2H])[2H] [2-amino-2-(CD3)-3,3,3-D3-propionic acid]
localization of the deuterium signal (2H MRI) ([1]; control mouse no. 2 without the tumor, 40 min after 20 mg i.p.): localized in the region corresponding to the liver
allowable time range between administration and detection of deuterium ([1]; mice with 4T1 tumor, 20 mg i.p., FIGS. 3, 5, 7 and 8): 20 to 360 min
signal/noise ratio in the kidneys ([1]; mouse no. 1, 40 min after 20 mg i.p., broadband excitation): approximately 25
localization of the deuterium signal (2H MRI) ([1]; mouse no. 1 with tumor, 40 min after 20 mg i.p.): localized in the region corresponding to the tumor
signal/noise ratio in the region of the tumor ([1]; mouse no. 1 with tumor, 40 min after 20 mg i.p., broadband excitation): approximately 6
signal/noise ratio in the region of the tumor ([1]; mouse no. 1 with tumor, 40 min after 20 mg i.p., selective excitation): about 4
localization of the deuterium signal (2H MRI) ([1]; mouse no. 3 with tumor, 115 min after 20 mg i.p.): localized in the region corresponding to the tumor and in the area corresponding to the liver
visibility of excised tumor on deuterium MR image ([1]; tumors excised from mouse no. 3, 150 min after injection of 20 mg): clearly visible on deuterium MR image
localization of the deuterium signal (2H MRI) ([2]; rat with C6 glioma): localized in the region corresponding to the tumor
localization of the deuterium signal (2H MRI) ([2]; rats without tumors): does not show a clear localization
localization of the deuterium signal (2H MRI) ([3]; mouse no. 4 with tumor, 20 min after 20 mg i.p.): localized in the region corresponding to the most recently developed and actively growing parts of the tumor, and also in the area corresponding to the liver
localization of the deuterium signal (2H MRI) ([3]; mouse no. 4 with tumor, 360 min after 20 mg i.p.): localized in the region corresponding to the most recently developed and actively growing parts of the tumor
localization of the deuterium signal (2H MRI) ([3]; mouse no. 5 with tumor, 30 min after 10 mg i.p.): localized in the region corresponding to individual parts of the tumor
localization of the deuterium signal (2H MRI) ([3]; mouse no. 6 with tumor, 30 min after 5 mg i.p.): localized in the region corresponding to individual parts of the tumor
